The test system of series [1] is Human immunodeficiency virus 1. The series is described as follows: Antiviral activity against […] HIV-1 infected in human MT4 cells assessed as reduction in virus-induced cytopathic effect incubated for 5 days by MTT assay. Particulars: Human immunodeficiency virus 1, MT4, 120 h. The series is classed as functional, organism-based. In general terms: Cytopathic effects are the visible damage that an infection or toxin causes in cultured cells.

The nature of series [2]: Cytotoxicity against human MT4 cells assessed as cell growth inhibition incubated for 5 days by MTT assay. The series is classed as toxicity, cell-based. Particulars: time 5 day.
Series [3] in a line: Selectivity index, ratio of CC50 for human MT4 cells to EC50 for antiviral activity against NNRTI resistant HIV-1 infected in human MT4 cells. It counts as toxicity, cell-based. Particulars: read-out: Ratio CC50/EC50.
The subject of series [4] is Human immunodeficiency virus 1. The series is described as follows: Antiviral activity against drug-resistant HIV-1 L100I mutant infected in human MT4 cells assessed as reduction in virus-induced cytopathic effect incubated for 5 days by MTT assay. The series is classed as functional, organism-based. Particulars: Human immunodeficiency virus 1, L100I mutant, MT4, 120 h.

Series [5] relates to Human immunodeficiency virus 1. The series is described as follows: Antiviral activity against drug-resistant HIV-1 K103 N mutant infected in human MT4 cells assessed as reduction in virus-induced cytopathic effect incubated for 5 days by MTT assay. The series is classed as functional, organism-based. Particulars: Human immunodeficiency virus 1, K103 N mutant, MT4, 120 h.
Series [6] relates to Human immunodeficiency virus 1. The series is described as follows: Antiviral activity against drug-resistant HIV-1 Y181C mutant infected in human MT4 cells assessed as reduction in virus-induced cytopathic effect incubated for 5 days by MTT assay. It counts as functional, organism-based. Particulars: Human immunodeficiency virus 1, Y181C mutant, MT4, 120 h.
In series [7] the test system is Human immunodeficiency virus 1. The series is described as follows: Antiviral activity against drug-resistant HIV-1 Y188L mutant infected in human MT4 cells assessed as reduction in virus-induced cytopathic effect incubated for 5 days by MTT assay. The series is classed as functional, organism-based. Particulars: Human immunodeficiency virus 1, Y188L mutant, MT4, 120 h.

The subject of series [8] is Human immunodeficiency virus 1. Briefly: Antiviral activity against drug-resistant HIV-1 E138K mutant infected in human MT4 cells assessed as reduction in virus-induced cytopathic effect incubated for 5 days by MTT assay. It counts as functional, organism-based. Particulars: Human immunodeficiency virus 1, E138K mutant, MT4, 120 h.
For series [9], the target named is Human immunodeficiency virus type 1 reverse transcriptase (Human immunodeficiency virus 1, UniProt Q72547). The series is described as follows: Inhibition of recombinant wild-type p66/p51 HIV-1 reverse transcriptase incubated for 40 mins by picogreen dye-based spectrofluorometric analysis.
Series [10] can be described thus: Fold resistance, ratio of EC50 for antiviral activity against drug-resistant HIV-1 L100I mutant infected in human MT4 cells to EC50 for antiviral activity against […] HIV-1 infected in human MT4 cells. The series is classed as functional.
Series [11] is described as follows: Fold resistance, ratio of EC50 for antiviral activity against drug-resistant HIV-1 K103 N mutant infected in human MT4 cells to EC50 for antiviral activity against […] HIV-1 infected in human MT4 cells. The series is classed as functional.
Series [12] in a line: Fold resistance, ratio of EC50 for antiviral activity against drug-resistant HIV-1 Y181C mutant infected in human MT4 cells to EC50 for antiviral activity against […] HIV-1 infected in human MT4 cells. The series is classed as functional.
Series [13] can be described thus: Fold resistance, ratio of EC50 for antiviral activity against drug-resistant HIV-1 Y188L mutant infected in human MT4 cells to EC50 for antiviral activity against […] HIV-1 infected in human MT4 cells. The series is classed as functional.
A short description of series [14]: Fold resistance, ratio of EC50 for antiviral activity against drug-resistant HIV-1 E138K mutant infected in human MT4 cells to EC50 for antiviral activity against […] HIV-1 infected in human MT4 cells. It counts as functional.
The target of a further series is Cytochrome P450 2D6 (Homo sapiens, UniProt P10635). The series is described as follows: Inhibition of CYP2D6 in human liver microsomes incubated for 15 to 40 mins in presence of NADPH. The series is classed as ADME, Microsome. (In general: Microsomes from liver hold many membrane-bound enzymes, among them those of drug oxidation.)
Chain of Cytochrome P450 2D6 (P10635 whole entry): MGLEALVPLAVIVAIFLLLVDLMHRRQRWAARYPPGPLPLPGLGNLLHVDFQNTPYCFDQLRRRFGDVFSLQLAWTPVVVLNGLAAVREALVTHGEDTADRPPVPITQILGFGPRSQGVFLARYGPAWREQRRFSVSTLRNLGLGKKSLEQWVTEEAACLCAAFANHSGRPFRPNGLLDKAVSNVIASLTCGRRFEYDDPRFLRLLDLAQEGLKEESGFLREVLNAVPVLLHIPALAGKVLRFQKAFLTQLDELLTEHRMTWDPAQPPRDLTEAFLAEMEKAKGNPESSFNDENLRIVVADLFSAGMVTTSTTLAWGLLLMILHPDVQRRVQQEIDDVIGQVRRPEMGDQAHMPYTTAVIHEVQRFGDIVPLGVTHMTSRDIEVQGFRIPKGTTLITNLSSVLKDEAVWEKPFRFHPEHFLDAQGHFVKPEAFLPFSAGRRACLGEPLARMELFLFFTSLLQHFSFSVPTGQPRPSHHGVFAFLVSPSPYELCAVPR

For the compound `Cc1c(C(C#N)c2ccc(Cl)nc2)nc(SC(C)C)[nH]c1=O` (stereo not given), the EC50 (as a rule, the concentration at which the effect is half-maximal) in series [1] is 20.6 µM; in series [4], 32.3 µM; in series [5], 41.3 µM; in [6], 41.3 µM; in [7], over 216 µM; in series [8], 28.6 µM. Further, the CC50 – broadly, the concentration giving 50% cytotoxicity – at 120 h in series [2] was determined as 216 µM. In addition, the selectivity ratio in series [3] turned out to be 10. The half-inhibitory concentration (IC50) (commonly the concentration that gives 50% inhibition) in series [9] was found to be 203 µM. Further, the “Ratio EC50” value in series [10] is on record as 2; in [11], 2; in series [12], 2; in [13], over 10; in series [14], 1.

For the compound `COc1ccc2c(c1)[C@]13CCCC[C@@H]1[C@H](C2)N(C)CC3` [DEXTROMETHORPHAN], on Cytochrome P450 2D6, the IC50 turned out to be 0.0408 µM.
